# Reference: patent US10087225B2, “Formulation of MK2 inhibitor peptides” (MOERAE MATRIX, INC., priority 2015, dated 2018)
# Tested on: HCAVSMCs
# Test: Cytosolic vs. organelle bound peptide by digitonin semi-permeabilization
# Type: cell-based, human
# Details: Bafilomycin treatment
# Protocol: In order to quantify the cytosolic bioavailability of the MK2i and HSP20 peptides a method to separate cytosolic and organelle bound (i.e. endosomal, lysosomal, golgi, etc.) peptide was adapted from the methods developed by Liu et a140. The procedure was optimized for this experiment based upon LDH release from HCAVSMCs treated with varying concentrations of digitonin (Calbiochem) in buffer (150 mM NaCl, 0.2 mM EDTA, 20 mM HEPES-NaOH (pH 7.4), 2 mM DTT and 2 mM MgCL2) on ice for 10 mins on a rotary shaker operating at 100 RPM (supplementary FIG. 3). A concentration of 25 μg/mL was then chosen as the optimal digitonin concentration for selective semi-permeabilization of the HCAVSMC membrane and subsequently used for the analysis of intracellular peptide distribution.
# To quantify intracellular distribution of the MK2i and p-HSP20 peptides, HCAVSMCs were seeded into a 96 well plate at a density of 20,000 cells/cm2 and allowed to adhere overnight in complete growth medium. A portion of the cells were pretreated with 500 nM Bafilomycin A1 (Sigma) for 30 minutes, and the Bafilomycin was included in subsequent peptide/NP treatment and in the post-treatment incubation phase to inhibit endosomal acidification. […] Treatments were removed and cells were incubated in fresh medium with or without 500 nM Bafilomycin A1 for 6 hours. […]
substance,measurement,value
H-YARAAARQARAKALARQLGVAA-OH [MMI-0100],cytosolic fraction of internalized free peptide,9.64%±8.17%
